# In ChEMBL document CHEMBL3044830, “Synthesis, characterization, antibacterial, antifungal, and immunomodulating activities of gatifloxacin derivatives” (Med Chem Res, 2010):
# Tests used:
# Fusarium solani [1] = experiment: Antifungal activity against Fusarium solani assessed as concentration required to obtain a zone of inhibition of 20 mm after 7 days by disk diffusion method; assay type: functional
# Fusarium solani [2] = experiment: Antifungal activity against Fusarium solani assessed as concentration required to obtain a zone of inhibition of 40 mm after 7 days by disk diffusion method; assay type: functional
# [3] = Antibacterial activity against Hofmanni bacterium assessed as concentration required to obtain a zone of inhibition of 10 mm after 18 to 24 hr by disc diffusion method
# Bacillus subtilis [4] = experiment: Antibacterial activity against Bacillus subtilis assessed as concentration required to obtain a zone of inhibition of 10 mm after 18 to 24 hr by disk diffusion method; assay type: functional
# Shigella flexneri [5] = experiment: Antibacterial activity against Shigella flexneri assessed as concentration required to obtain a zone of inhibition of 20 mm after 18 to 24 hr by disk diffusion method; assay type: functional
# Proteus mirabilis [6] = experiment: Antibacterial activity against Proteus mirabilis assessed as zone of inhibition at 5 to 40 ug/ml after 18 to 24 hr by disc diffusion method relative to gatifloxacin; assay type: functional
# Proteus mirabilis [7] = experiment: Antibacterial activity against Proteus mirabilis assessed as concentration required to obtain a zone of inhibition of 5 mm after 18 to 24 hr by disc diffusion method; assay type: functional
# Citrobacter [8] = experiment: Antibacterial activity against Citrobacter assessed as concentration required to obtain a zone of inhibition of 20 mm after 18 to 24 hr by disk diffusion method; assay type: functional
# Escherichia coli [9] = experiment: Antibacterial activity against Escherichia coli assessed as concentration required to obtain a zone of inhibition of 10 mm after 18 to 24 hr by disk diffusion method; assay type: functional
# Pseudomonas aeruginosa [10] = experiment: Antibacterial activity against Pseudomonas aeruginosa assessed as concentration required to obtain a zone of inhibition of 10 mm after 18 to 24 hr by disk diffusion method; assay type: functional
# Candida albicans [11] = experiment: Antifungal activity against Candida albicans assessed as concentration required to obtain a zone of inhibition of 20 mm after 7 days by disk diffusion method; assay type: functional
# [12] = Antibacterial activity against Hofmanni bacterium assessed as concentration required to obtain a zone of inhibition of 20 mm after 18 to 24 hr by disc diffusion method
# Bacillus subtilis [13] = experiment: Antibacterial activity against Bacillus subtilis assessed as concentration required to obtain a zone of inhibition of 5 mm after 18 to 24 hr by disk diffusion method; assay type: functional
# Klebsiella pneumoniae [14] = experiment: Antibacterial activity against Klebsiella pneumoniae assessed as zone of inhibition at 5 to 40 ug/ml after 18 to 24 hr by disk diffusion method relative to gatifloxacin; assay type: functional
# Saccharomyces cerevisiae = experiment: Antifungal activity against Saccharomyces cerevisiae assessed as zone of inhibition at 5 to 40 ug/ml after 7 days by disk diffusion method relative to gatifloxacin; assay type: functional
# Citrobacter [15] = experiment: Antibacterial activity against Citrobacter assessed as zone of inhibition at 5 to 40 ug/ml after 18 to 24 hr by disk diffusion method relative to gatifloxacin; assay type: functional
# Trichophyton rubrum [16] = experiment: Antifungal activity against Trichophyton rubrum assessed as concentration required to obtain a zone of inhibition of 20 mm after 7 days by disk diffusion method; assay type: functional
# Proteus mirabilis [17] = experiment: Antibacterial activity against Proteus mirabilis assessed as concentration required to obtain a zone of inhibition of 10 mm after 18 to 24 hr by disc diffusion method; assay type: functional
# Shigella flexneri [18] = experiment: Antibacterial activity against Shigella flexneri assessed as concentration required to obtain a zone of inhibition of 10 mm after 18 to 24 hr by disk diffusion method; assay type: functional
# Shigella sp. [19] = experiment: Antibacterial activity against Shigella typhi assessed as concentration required to obtain a zone of inhibition of 5 mm after 18 to 24 hr by disc diffusion method; assay type: functional
# Staphylococcus aureus = experiment: Antibacterial activity against methicillin-resistant Staphylococcus aureus assessed as zone of inhibition at 5 to 40 ug/ml after 18 to 24 hr by disk diffusion method relative to gatifloxacin; assay type: functional
# Escherichia coli [20] = experiment: Antibacterial activity against Escherichia coli assessed as zone of inhibition at 5 to 40 ug/ml after 18 to 24 hr by disk diffusion method relative to gatifloxacin; assay type: functional
# Candida albicans [21] = experiment: Antifungal activity against Candida albicans assessed as zone of inhibition at 5 to 40 ug/ml after 7 days by disk diffusion method relative to gatifloxacin; assay type: functional
# Klebsiella pneumoniae [22] = experiment: Antibacterial activity against Klebsiella pneumoniae assessed as concentration required to obtain a zone of inhibition of 5 mm after 18 to 24 hr by disk diffusion method; assay type: functional
# Candida albicans [23] = experiment: Antifungal activity against Candida albicans assessed as concentration required to obtain a zone of inhibition of 40 mm after 7 days by disk diffusion method; assay type: functional
# Klebsiella pneumoniae [24] = experiment: Antibacterial activity against Klebsiella pneumoniae assessed as concentration required to obtain a zone of inhibition of 20 mm after 18 to 24 hr by disk diffusion method; assay type: functional
# Citrobacter [25] = experiment: Antibacterial activity against Citrobacter assessed as concentration required to obtain a zone of inhibition of 5 mm after 18 to 24 hr by disk diffusion method; assay type: functional
# Shigella flexneri [26] = experiment: Antibacterial activity against Shigella flexneri assessed as zone of inhibition at 5 to 40 ug/ml after 18 to 24 hr by disk diffusion method relative to gatifloxacin; assay type: functional
# Pseudomonas aeruginosa [27] = experiment: Antibacterial activity against Pseudomonas aeruginosa assessed as zone of inhibition at 5 to 40 ug/ml after 18 to 24 hr by disk diffusion method relative to gatifloxacin; assay type: functional
# Proteus mirabilis [28] = experiment: Antibacterial activity against Proteus mirabilis assessed as concentration required to obtain a zone of inhibition of 20 mm after 18 to 24 hr by disc diffusion method; assay type: functional
# Citrobacter [29] = experiment: Antibacterial activity against Citrobacter assessed as concentration required to obtain a zone of inhibition of 10 mm after 18 to 24 hr by disk diffusion method; assay type: functional
# [30] = Antibacterial activity against Hofmanni bacterium assessed as zone of inhibition after 18 to 24 hr by disc diffusion method relative to gatifloxacin
# Shigella flexneri [31] = experiment: Antibacterial activity against Shigella flexneri assessed as concentration required to obtain a zone of inhibition of 5 mm after 18 to 24 hr by disk diffusion method; assay type: functional
# Shigella sp. [32] = experiment: Antibacterial activity against Shigella typhi assessed as zone of inhibition after 18 to 24 hr by disc diffusion method relative to gatifloxacin; assay type: functional
# Bacillus subtilis [33] = experiment: Antibacterial activity against Bacillus subtilis assessed as concentration required to obtain a zone of inhibition of 20 mm after 18 to 24 hr by disk diffusion method; assay type: functional
# Trichophyton rubrum [34] = experiment: Antifungal activity against Trichophyton rubrum assessed as zone of inhibition at 5 to 40 ug/ml after 7 days by disk diffusion method relative to gatifloxacin; assay type: functional
# Pseudomonas aeruginosa [35] = experiment: Antibacterial activity against Pseudomonas aeruginosa assessed as concentration required to obtain a zone of inhibition of 20 mm after 18 to 24 hr by disk diffusion method; assay type: functional
# Fusarium solani [36] = experiment: Antifungal activity against Fusarium solani assessed as zone of inhibition at 5 to 40 ug/ml after 7 days by disk diffusion method relative to gatifloxacin; assay type: functional
# Bacillus subtilis [37] = experiment: Antibacterial activity against Bacillus subtilis assessed as zone of inhibition at 5 to 40 ug/ml after 18 to 24 hr by disk diffusion method relative to gatifloxacin; assay type: functional
# Pseudomonas aeruginosa [38] = experiment: Antibacterial activity against Pseudomonas aeruginosa assessed as concentration required to obtain a zone of inhibition of 5 mm after 18 to 24 hr by disk diffusion method; assay type: functional
# Klebsiella pneumoniae [39] = experiment: Antibacterial activity against Klebsiella pneumoniae assessed as concentration required to obtain a zone of inhibition of 10 mm after 18 to 24 hr by disk diffusion method; assay type: functional
# Escherichia coli [40] = experiment: Antibacterial activity against Escherichia coli assessed as concentration required to obtain a zone of inhibition of 5 mm after 18 to 24 hr by disk diffusion method; assay type: functional
# Escherichia coli [41] = experiment: Antibacterial activity against Escherichia coli assessed as concentration required to obtain a zone of inhibition of 20 mm after 18 to 24 hr by disk diffusion method; assay type: functional
# Trichophyton rubrum [42] = experiment: Antifungal activity against Trichophyton rubrum assessed as concentration required to obtain a zone of inhibition of 40 mm after 7 days by disk diffusion method; assay type: functional
# [43] = Antibacterial activity against Hofmanni bacterium assessed as concentration required to obtain a zone of inhibition of 5 mm after 18 to 24 hr by disc diffusion method
structure (smiles),measurement,setting,value
C[C@@H]1CN(c2c(F)c(N)c3c(=O)c(C(=O)O)cn(C4CC4)c3c2F)C[C@H](C)N1 [SPARFLOXACIN],Activity,Fusarium solani [1],10 µg/mL
same,Activity,Fusarium solani [2],11 µg/mL
same,Activity,[3],13 µg/mL
same,Activity,Bacillus subtilis [4],13 µg/mL
same,Activity,Shigella flexneri [5],13 µg/mL
same,inhibition zone (IZ),Proteus mirabilis [6],90%
same,Activity,Proteus mirabilis [7],10 µg/mL
same,Activity,Citrobacter [8],10 µg/mL
same,Activity,Escherichia coli [9],11 µg/mL
same,Activity,Pseudomonas aeruginosa [10],13 µg/mL
same,Activity,Candida albicans [11],13 µg/mL
same,Activity,[12],14 µg/mL
same,Activity,Bacillus subtilis [13],12 µg/mL
same,inhibition zone (IZ),Klebsiella pneumoniae [14],96.1%
same,inhibition zone (IZ),Saccharomyces cerevisiae,0%
same,inhibition zone (IZ),Citrobacter [15],42.73%
same,Activity,Trichophyton rubrum [16],20 µg/mL
same,Activity,Proteus mirabilis [17],12 µg/mL
same,Activity,Shigella flexneri [18],11 µg/mL
same,Activity,Shigella sp. [19],9 µg/mL
same,inhibition zone (IZ),Staphylococcus aureus,77.2%
same,inhibition zone (IZ),Escherichia coli [20],98.01%
same,inhibition zone (IZ),Candida albicans [21],176%
same,Activity,Klebsiella pneumoniae [22],10 µg/mL
same,Activity,Candida albicans [23],17 µg/mL
same,Activity,Klebsiella pneumoniae [24],16 µg/mL
same,Activity,Citrobacter [25],8 µg/mL
same,inhibition zone (IZ),Shigella flexneri [26],75.1%
same,inhibition zone (IZ),Pseudomonas aeruginosa [27],117.6%
same,Activity,Proteus mirabilis [28],15 µg/mL
same,Activity,Citrobacter [29],9 µg/mL
same,inhibition zone (IZ),[30],110%
same,Activity,Shigella flexneri [31],9 µg/mL
same,inhibition zone (IZ),Shigella sp. [32],87%
same,Activity,Bacillus subtilis [33],15 µg/mL
same,inhibition zone (IZ),Trichophyton rubrum [34],169%
same,Activity,Pseudomonas aeruginosa [35],15 µg/mL
same,inhibition zone (IZ),Fusarium solani [36],70%
same,inhibition zone (IZ),Bacillus subtilis [37],94.6%
same,Activity,Pseudomonas aeruginosa [38],11 µg/mL
same,Activity,Klebsiella pneumoniae [39],13 µg/mL
same,Activity,Escherichia coli [40],9 µg/mL
same,Activity,Escherichia coli [41],14 µg/mL
same,Activity,Trichophyton rubrum [42],24 µg/mL
same,Activity,[43],11 µg/mL
